Reference: US10111932B2, “Coagonists of glucagon-like peptide 1 receptor and neuropeptide Y2 receptor” (Syracuse University, priority 2015, dated 2018)
Entries after “also recorded” stand apart in the source; their conditions may differ. Ends that are not written are not given here.

Legend:
Format in all cases: cell-based
GLP-1R = biological target: T1, GLP-1R (Homo sapiens, UniProt P43220); experiment: GLP-1R agonism, AKAR3 FRET assay in HEK-GLP-1R cells; conditions: for GLP-1R agonism screen: 300 nM, HEK-GLP-1R cells (FIG. 10)
T1 construct: expressed in transfected cells; host or cells: HEK293
Method: (§1) The RLB series peptides were tested for function at receptors corresponding to the glucagon super family of receptors and NPY receptors. These receptors were transfected into either HEK293 cells or CHO cells. HEK 293 cells stably transfected with either GLP-1R or GIPR followed by an infection of adenovirus incorporating AKAR3 to indirectly follow cAMP production. CHO cells were transfected with NPY2R and a promiscuous g protein using FURA2 to follow calcium release.

NPY2R = biological target: T2, NPY2R (Homo sapiens, UniProt P49146); experiment: NPY2R agonism, FURA2 calcium release in transfected CHO cells
T2 construct: expressed in transfected cells; host or cells: CHO
T2 sequence (P49146 1-381): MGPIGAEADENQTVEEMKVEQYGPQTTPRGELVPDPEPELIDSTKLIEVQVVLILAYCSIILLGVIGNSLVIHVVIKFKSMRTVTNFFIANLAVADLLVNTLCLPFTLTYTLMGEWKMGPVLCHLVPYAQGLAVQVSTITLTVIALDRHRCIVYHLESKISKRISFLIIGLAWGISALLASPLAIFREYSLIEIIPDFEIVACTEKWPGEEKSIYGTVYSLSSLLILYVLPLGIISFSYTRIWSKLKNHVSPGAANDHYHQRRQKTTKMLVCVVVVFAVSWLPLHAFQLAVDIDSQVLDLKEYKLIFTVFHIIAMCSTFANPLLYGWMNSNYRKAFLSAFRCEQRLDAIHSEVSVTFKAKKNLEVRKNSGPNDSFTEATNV
Method: as §1

GIPR = biological target: T3, GIPR (Homo sapiens, UniProt P48546); experiment: GIPR agonism, AKAR3 FRET in HEK293 cells stably transfected with GIPR; conditions: tested up to 1 μM
T3 construct: expressed in transfected cells; host or cells: HEK293
T3 sequence (P48546 22-466): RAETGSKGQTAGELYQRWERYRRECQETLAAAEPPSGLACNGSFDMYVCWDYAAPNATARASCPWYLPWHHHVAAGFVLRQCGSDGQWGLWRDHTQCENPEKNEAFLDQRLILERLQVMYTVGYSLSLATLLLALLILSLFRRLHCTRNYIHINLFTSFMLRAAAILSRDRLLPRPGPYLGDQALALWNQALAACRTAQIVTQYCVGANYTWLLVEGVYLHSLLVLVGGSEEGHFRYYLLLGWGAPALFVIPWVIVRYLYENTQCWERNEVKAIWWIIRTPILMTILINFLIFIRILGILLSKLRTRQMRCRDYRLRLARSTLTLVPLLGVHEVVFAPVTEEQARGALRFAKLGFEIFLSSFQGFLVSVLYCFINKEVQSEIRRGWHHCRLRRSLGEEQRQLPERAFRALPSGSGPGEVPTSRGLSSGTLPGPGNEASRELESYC
Method: as §1
Receptors in the glucagon receptor superfamily were tested based on the similarities of native peptide agonists.

T1 sequence (P43220 24-463, species assumed): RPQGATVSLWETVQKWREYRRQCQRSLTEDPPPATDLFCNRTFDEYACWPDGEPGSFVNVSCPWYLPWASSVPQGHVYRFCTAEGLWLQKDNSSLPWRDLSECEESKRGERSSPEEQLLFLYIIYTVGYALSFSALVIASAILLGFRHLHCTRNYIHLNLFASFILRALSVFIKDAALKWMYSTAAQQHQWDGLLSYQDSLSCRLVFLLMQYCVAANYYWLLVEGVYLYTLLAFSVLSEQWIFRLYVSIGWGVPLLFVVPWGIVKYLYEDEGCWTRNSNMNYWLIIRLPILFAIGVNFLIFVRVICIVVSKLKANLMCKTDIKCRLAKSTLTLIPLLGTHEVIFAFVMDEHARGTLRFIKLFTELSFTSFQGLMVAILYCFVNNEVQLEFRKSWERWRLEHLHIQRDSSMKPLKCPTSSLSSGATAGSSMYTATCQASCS

Row | Compound | GLP-1R agonism screen (GLP-1R) | EC50 (GLP-1R; dose response) [µM] | GLP-1R agonism screening (GLP-1R; peptides at 100 nM (FIG. 3)) | Potency at the GLP-1R, comparative statement (GLP-1R; relative to the other dual agonists) | NPY2R agonism screen (NPY2R; 300 nM (FIG. 12)) | EC50 (NPY2R; dose response) [µM] | GIPR agonism (GIPR)
1 | CC[C@H](C)[C@H](NC(=O)[C@H](Cc1ccccc1)NC(=O)[C@H](CC(C)C)NC(=O)[C@H](CCCNC(=N)N)NC(=O)[C@@H](NC(=O)[C@H](C)NC(=O)[C@H](CCC(=O)O)NC(=O)[C@H](CCC(=O)O)NC(=O)[C@H](CCC(=O)O)NC(=O)[C@H](CCSC)NC(=O)[C@H](CCC(N)=O)NC(=O)[C@H](CCCCN)NC(=O)[C@H](CO)NC(=O)[C@H](CC(C)C)NC(=O)[C@H](CC(=O)O)NC(=O)[C@H](CO)NC(=O)[C@@H](NC(=O)[C@H](Cc1ccccc1)NC(=O)[C@@H](NC(=O)CNC(=O)[C@H](CCC(=O)O)NC(=O)CNC(=O)[C@@H](N)Cc1c[nH]cn1)[C@@H](C)O)[C@@H](C)O)C(C)C)C(=O)N[C@@H](CCC(=O)O)C(=O)N[C@@H](Cc1c[nH]c2ccccc12)C(=O)N[C@@H](CC(C)C)C(=O)N[C@@H](CCCNC(=N)N)C(=O)N[C@@H](Cc1c[nH]cn1)C(=O)N[C@@H](Cc1ccc(O)cc1)C(=O)N[C@@H](CC(C)C)C(=O)N[C@@H](CC(N)=O)C(=O)N[C@@H](CC(C)C)C(=O)N[C@H](C(=O)N[C@H](C(=O)N[C@@H](CCCNC(=N)N)C(=O)N[C@@H](CCC(N)=O)C(=O)N[C@@H](CCCNC(=N)N)C(=O)N[C@@H](Cc1ccc(O)cc1)C(N)=O)[C@@H](C)O)C(C)C [Peptide 12] | have agonism | 0.000253 ± 5e-05 | effective agonists | significant less potent | full function | 0.059 | no agonsim; also recorded: no function
2 | IKPEAPREDASPEEENQAYKEFIAYLNLVTRQRY-NH2 [Peptide 13] | no function | – | – | – | – | – | –
